IC50, selectivity ratio and MIC data for 6 compounds are collected here from ChEMBL document CHEMBL3232804, “Synthesis and evaluation of new diaryl ether and quinoline hybrids as potential antiplasmodial and antimicrobial agents” (Bioorg Med Chem Lett, 2014).

Data set [1] deals with Plasmodium falciparum. Kind of data set: Antiplasmodial activity against chloroquine-sensitive Plasmodium falciparum 3D7 infected after 72 hrs by Malaria SYBR Green I-staining based fluorescence assay. Particulars: 3D7, 72 h. In kind it is functional, organism-based.
The test system of data set [2] is Plasmodium falciparum. Kind of data set: Antiplasmodial activity against chloroquine-resistant Plasmodium falciparum K1 infected after 72 hrs by Malaria SYBR Green I-staining based fluorescence assay. The settings on record: K1, 72 h. In kind it is functional, organism-based.
Data set [3] can be described thus: Selectivity index, ratio of IC50 for african green monkey Vero cells to IC50 for chloroquine-sensitive Plasmodium falciparum 3D7. In kind it is toxicity, cell-based. Particulars: read-out: Ratio IC50.
A further data set has as its system Escherichia coli. Kind of data set: Antimicrobial activity against Escherichia coli ATCC 9637 after 24 hrs by standard broth microdilution method. In kind it is functional. Particulars: ATCC 9637, 24 h. On the technique in general: Broth dilution looks for growth in wells or tubes with falling amounts of substance.
For another data set, the system named is Pseudomonas aeruginosa. Kind of data set: Antimicrobial activity against Pseudomonas aeruginosa ATCC BAA-427 after 24 hrs by standard broth microdilution method. In kind it is functional. The settings on record: ATCC BAA-427, 24 h.
Another data set concerns Staphylococcus aureus. Kind of data set: Antimicrobial activity against Staphylococcus aureus ATCC 25923 after 24 hrs by standard broth microdilution method. The settings on record: ATCC 25923, 24 h. In kind it is functional.
A further data set deals with Klebsiella pneumoniae. The experiment in a line: Antimicrobial activity against Klebsiella pneumoniae ATCC 27736 after 24 hrs by standard broth microdilution method. In kind it is functional. The settings on record: ATCC 27736, 24 h.
Another data set relates to Candida albicans. The experiment in a line: Antifungal activity against Candida albicans clinical isolate after 24 to 48 hrs by standard broth microdilution method. In kind it is functional.
The next data set has as its system Cryptococcus neoformans. Kind of data set: Antifungal activity against Cryptococcus neoformans clinical isolate after 24 to 48 hrs by standard broth microdilution method. In kind it is functional.
The subject of a further data set is Sporothrix schenckii. The experiment in a line: Antifungal activity against Sporothrix schenckii clinical isolate after 72 to 96 hrs by standard broth microdilution method. In kind it is functional.
The subject of data set [4] is Trichophyton mentagrophytes. The experiment in a line: Antifungal activity against Trichophyton mentagrophytes clinical isolate after 72 to 96 hrs by standard broth microdilution method. In kind it is functional.
The next data set concerns Aspergillus fumigatus. The experiment in a line: Antifungal activity against Aspergillus fumigatus clinical isolate after 72 to 96 hrs by standard broth microdilution method. In kind it is functional.
In a further data set the test system is Candida parapsilosis. Kind of data set: Antifungal activity against Candida parapsilosis ATCC […] after 72 to 96 hrs by standard broth microdilution method. The settings on record: Lodderomyces parapsilosis. In kind it is functional.

In general, IC50 refers to the concentration that gives 50% inhibition. What is called MIC is the smallest concentration in the dilution series that meets the test's criterion for growth inhibition.

Values after ≈ are worked out from the molar mass of the structure shown. Some results are limits rather than exact numbers.

With `Clc1ccc(Cl)c(Oc2ccc(N/C(=N/c3ccccc3)NCCCCNc3ccnc4cc(Cl)ccc34)cc2)c1`, the IC50 with Plasmodium falciparum [1] is 0.307 µM; in the data set with Plasmodium falciparum [2], above 0.826 µM. For the same compound, in data set [3], the selectivity ratio was 29.9. Also, the MIC in the data set on Escherichia coli is 12.5 mg/L (≈ 20.7 µM); against Pseudomonas aeruginosa, above 50 mg/L; in the data set on Staphylococcus aureus, 12.5 mg/L (≈ 20.7 µM); with Klebsiella pneumoniae it was 25 mg/L (≈ 41.3 µM); in the data set on Candida albicans, 12.5 mg/L (≈ 20.7 µM); against Cryptococcus neoformans it was 25 mg/L (≈ 41.3 µM). Further, the MIC with Sporothrix schenckii was 25 mg/L (≈ 41.3 µM); in data set [4] it was 25 mg/L (≈ 41.3 µM); against Aspergillus fumigatus, 25 mg/L (≈ 41.3 µM); against Candida parapsilosis, 12.5 mg/L (≈ 20.7 µM).

`COc1ccc(Oc2ccccc2N/C(=N/c2cccc(Cl)c2)NCCCCNc2ccnc3cc(Cl)ccc23)cc1`: the IC50 is 0.0376 µM in the data set with Plasmodium falciparum [1] and above 1 µM in the data set with Plasmodium falciparum [2]. Moreover, the selectivity ratio in data set [3] came out at 176. For the same compound, the MIC with Escherichia coli is 12.5 mg/L (≈ 20.8 µM); with Pseudomonas aeruginosa, above 50 mg/L; against Staphylococcus aureus it was 3.12 mg/L (≈ 5.2 µM); against Klebsiella pneumoniae it was 50 mg/L (≈ 83.3 µM); in the data set with Candida albicans, 12.5 mg/L (≈ 20.8 µM); against Cryptococcus neoformans, 50 mg/L (≈ 83.3 µM). Further, the MIC was 12.5 mg/L (≈ 20.8 µM) in the data set with Sporothrix schenckii, 12.5 mg/L (≈ 20.8 µM) in data set [4], above 50 mg/L in the data set with Aspergillus fumigatus and 50 mg/L (≈ 83.3 µM) against Candida parapsilosis.

Take `COc1ccc(Oc2ccc(N/C(=N/c3cccc(Cl)c3)NCCCCNc3ccnc4cc(Cl)ccc34)cc2)cc1`: the IC50 in the data set with Plasmodium falciparum [1] stood at 0.0757 µM; with Plasmodium falciparum [2], 0.147 µM. The selectivity ratio in data set [3] is 61.2. The MIC is 25 mg/L (≈ 41.6 µM) in the data set on Escherichia coli; above 50 mg/L in the data set on Pseudomonas aeruginosa; 6.25 mg/L (≈ 10.4 µM) with Staphylococcus aureus; 25 mg/L (≈ 41.6 µM) in the data set on Klebsiella pneumoniae; 6.25 mg/L (≈ 10.4 µM) against Candida albicans; 12.5 mg/L (≈ 20.8 µM) in the data set on Cryptococcus neoformans. The MIC in the data set with Sporothrix schenckii turned out to be 6.25 mg/L (≈ 10.4 µM); in [4], 6.25 mg/L (≈ 10.4 µM); against Aspergillus fumigatus, 25 mg/L (≈ 41.6 µM); against Candida parapsilosis, 6.25 mg/L (≈ 10.4 µM).

Take `COC(=O)/C(C)=C/c1ccc(Oc2ccc(N/C(=N/c3ccc(Cl)cc3)NCCNc3ccnc4cc(Cl)ccc34)cc2)cc1`: the IC50 with Plasmodium falciparum [1] was 0.0431 µM; in the data set on Plasmodium falciparum [2] it was above 0.8 µM. Besides, the selectivity ratio in [3] amounted to 69.2. Also, the MIC in the data set on Escherichia coli was 12.5 mg/L (≈ 19.5 µM); with Pseudomonas aeruginosa, above 50 mg/L; against Staphylococcus aureus, 6.25 mg/L (≈ 9.76 µM); in the data set with Klebsiella pneumoniae, 50 mg/L (≈ 78.1 µM); against Candida albicans, 6.25 mg/L (≈ 9.76 µM); against Cryptococcus neoformans, 6.25 mg/L (≈ 9.76 µM). In addition, the MIC in the data set on Sporothrix schenckii stood at 6.25 mg/L (≈ 9.76 µM); in [4], 12.5 mg/L (≈ 19.5 µM); against Aspergillus fumigatus, 25 mg/L (≈ 39 µM); against Candida parapsilosis it was 25 mg/L (≈ 39 µM).

For the compound `COc1ccc(Oc2ccc(N/C(=N/c3ccccc3)NCCCNc3ccnc4cc(Cl)ccc34)cc2)cc1`, the IC50 in the data set with Plasmodium falciparum [1] was 0.0366 µM; in the data set on Plasmodium falciparum [2] it was 0.68 µM. In addition, the selectivity ratio in data set [3] was 97.8. Moreover, the MIC in the data set on Escherichia coli is 6.25 mg/L (≈ 11.3 µM); in the data set on Pseudomonas aeruginosa, above 50 mg/L; with Staphylococcus aureus, 6.25 mg/L (≈ 11.3 µM); in the data set with Klebsiella pneumoniae, 12.5 mg/L (≈ 22.6 µM); against Candida albicans it was 25 mg/L (≈ 45.3 µM); with Cryptococcus neoformans, 25 mg/L (≈ 45.3 µM). The MIC with Sporothrix schenckii worked out at 12.5 mg/L (≈ 22.6 µM); in data set [4], 12.5 mg/L (≈ 22.6 µM); in the data set on Aspergillus fumigatus, 25 mg/L (≈ 45.3 µM); against Candida parapsilosis, 12.5 mg/L (≈ 22.6 µM).

With `Clc1ccc(Cl)c(Oc2ccc(N/C(=N/c3ccccc3)NCCNc3ccnc4cc(Cl)ccc34)cc2)c1`, the IC50 in the data set on Plasmodium falciparum [1] was 0.0395 µM; in the data set with Plasmodium falciparum [2], above 0.866 µM. In addition, in [3], the selectivity ratio was 109. Also, the MIC in the data set with Escherichia coli was 6.25 mg/L (≈ 10.8 µM); with Pseudomonas aeruginosa, above 50 mg/L; against Staphylococcus aureus, 12.5 mg/L (≈ 21.7 µM); in the data set on Klebsiella pneumoniae, above 50 mg/L; with Candida albicans, 3.12 mg/L (≈ 5.41 µM); with Cryptococcus neoformans it was 6.25 mg/L (≈ 10.8 µM). The MIC is 3.12 mg/L (≈ 5.41 µM) in the data set with Sporothrix schenckii, 6.25 mg/L (≈ 10.8 µM) in [4], 12.5 mg/L (≈ 21.7 µM) against Aspergillus fumigatus and 3.12 mg/L (≈ 5.41 µM) in the data set with Candida parapsilosis.
